The values that follow come from US7754946B2, “Stem-regulated, plant defense promoter and uses thereof in tissue-specific expression in monocots” (The Texas A&M University System, priority 2003, dated 2010).

In the experiment the test system is JAS. In words: Microarray of JAS cDNA clones after spraying sugarcane plants with defense-inducing agents. In kind it is in vivo. The note with it: treated v. untreated plant. Here is the method:
The 251 cDNA clones used for microarray analysis in Example 1 were further used to assess the effects of defense-inducing agents on the expression of the stem-specific genes.
Total RNA was extracted from wild type sugarcane plants (3 months-old) that were sprayed with the defense-inducing agents jasmonic acid (JA) (25·mu·M in 0.05.percent.Tween 20), methyl-jasmonate (MeJA) (200·mu·M in 0.1.percent.ethanol and 0.05.percent.Tween 20) or salicylic acid (SA) (5 mM in 0.05.percent.Tween 20) for two time periods, 24 and 48 hours. The microarray including 251 cDNAs was probed with fluorescently labeled cDNAs synthesized from 1·mu·g of total amplified RNA. One cDNA probe (e.g. RNA from plant treated with a defense-inducing agent) is labeled with one dye (Cy5), and the second (e.g. RNA from untreated control plant) with another dye (Cy3)
Microarray data was analyzed using GeneSpring analysis software. Data were normalized using an endogenous constitutive gene. The normalized ratio of Cy5 v.

Regarding `O=C(O)c1ccccc1O` [SA, salicylic acid], the “Cy5/Cy3 Ratios (Upregulation) for JAS” value is recorded as 16.92 (clone 2I1, SA 5 mM spray, 48 hours); 15.26 (clone 4Q3, SA 5 mM spray, 48 hours); 18.08 (clone 5P22, SA 5 mM spray, 48 hours); 19.22 (clone 6H10, SA 5 mM spray, 48 hours); 20.96 (clone 10P7, SA 5 mM spray, 48 hours); 17.54 (clone 12F18, SA 5 mM spray, 48 hours). Moreover, the “Cy5/Cy3 Ratios (Upregulation) for JAS” value runs as follows: (clone 17C11, SA 5 mM spray, 48 hours) 18.83; (clone 18H16, SA 5 mM spray, 48 hours) 0.70; (clone 20F18, SA 5 mM spray, 48 hours) 19.54; (clone 20G16, SA 5 mM spray, 48 hours) 13.81; (clone 24G4, SA 5 mM spray, 48 hours) 7.73; (clone 25K14, SA 5 mM spray, 48 hours) 0.70.

For the compound `CC/C=C\C[C@H]1C(=O)CC[C@@H]1CC(=O)O` [JA, jasmonic acid], the “Cy5/Cy3 Ratios (Upregulation) for JAS” value (clone 2I1, JA 25 μM spray, 24 hours) was found to be 0.59; the “Cy5/Cy3 Ratios (Upregulation) for JAS” value (clone 2I1, JA 25 μM spray, 48 hours) is recorded as 2.10; the “Cy5/Cy3 Ratios (Upregulation) for JAS” value (clone 4Q3, JA 25 μM spray, 24 hours) is 0.41; the “Cy5/Cy3 Ratios (Upregulation) for JAS” value (clone 4Q3, JA 25 μM spray, 48 hours) turned out to be 2.12; the “Cy5/Cy3 Ratios (Upregulation) for JAS” value (clone 5P22, JA 25 μM spray, 24 hours) was found to be 0.41; the “Cy5/Cy3 Ratios (Upregulation) for JAS” value (clone 5P22, JA 25 μM spray, 48 hours) was 2.10. For the same compound, the “Cy5/Cy3 Ratios (Upregulation) for JAS” value reads like this: (clone 6H10, JA 25 μM spray, 24 hours) 0.42; (clone 6H10, JA 25 μM spray, 48 hours) 2.19; (clone 10P7, JA 25 μM spray, 24 hours) 0.59; (clone 10P7, JA 25 μM spray, 48 hours) 2.10; (clone 12F18, JA 25 μM spray, 24 hours) 0.51; (clone 12F18, JA 25 μM spray, 48 hours) 1.64. In addition, the “Cy5/Cy3 Ratios (Upregulation) for JAS” value is listed as 0.51 (clone 13F16, JA 25 μM spray, 24 hours); 2.21 (clone 13F16, JA 25 μM spray, 48 hours); 0.35 (clone 17C11, JA 25 μM spray, 24 hours); 2.12 (clone 17C11, JA 25 μM spray, 48 hours); 1.90 (clone 18H16, JA 25 μM spray, 24 hours); 1.40 (clone 18H16, JA 25 μM spray, 48 hours). The “Cy5/Cy3 Ratios (Upregulation) for JAS” value was 0.34 (clone 20F18, JA 25 μM spray, 24 hours); 2.00 (clone 20F18, JA 25 μM spray, 48 hours); 0.85 (clone 20G16, JA 25 μM spray, 24 hours); 1.30 (clone 20G16, JA 25 μM spray, 48 hours); 0.41 (clone 24G4, JA 25 μM spray, 24 hours); 1.14 (clone 24G4, JA 25 μM spray, 48 hours). The “Cy5/Cy3 Ratios (Upregulation) for JAS” value by setting is: (clone 25K14, JA 25 μM spray, 24 hours) 1.73; (clone 25K14, JA 25 μM spray, 48 hours) 1.65.

`CC/C=C\CC1C(=O)CCC1CC(=O)OC` (stereo not shown) [MeJA, methyl-jasmonate]: the “Cy5/Cy3 Ratios (Upregulation) for JAS” value (clone 2I1, MeJA 200 μM spray, 24 hours) is given as 0.27; the “Cy5/Cy3 Ratios (Upregulation) for JAS” value (clone 2I1, MeJA 200 μM spray, 48 hours) is given as 0.22; the “Cy5/Cy3 Ratios (Upregulation) for JAS” value (clone 4Q3, MeJA 200 μM spray, 24 hours) came out at 0.15; the “Cy5/Cy3 Ratios (Upregulation) for JAS” value (clone 4Q3, MeJA 200 μM spray, 48 hours) turned out to be 0.18; the “Cy5/Cy3 Ratios (Upregulation) for JAS” value (clone 5P22, MeJA 200 μM spray, 24 hours) stood at 0.16; the “Cy5/Cy3 Ratios (Upregulation) for JAS” value (clone 5P22, MeJA 200 μM spray, 48 hours) is 0.17. Further, the “Cy5/Cy3 Ratios (Upregulation) for JAS” value came to 0.15 (clone 6H10, MeJA 200 μM spray, 24 hours); 0.19 (clone 6H10, MeJA 200 μM spray, 48 hours); 0.13 (clone 10P7, MeJA 200 μM spray, 24 hours); 0.15 (clone 10P7, MeJA 200 μM spray, 48 hours); 0.20 (clone 12F18, MeJA 200 μM spray, 24 hours); 0.21 (clone 12F18, MeJA 200 μM spray, 48 hours). In addition, the “Cy5/Cy3 Ratios (Upregulation) for JAS” value is listed as 0.25 (clone 13F16, MeJA 200 μM spray, 24 hours); 0.34 (clone 13F16, MeJA 200 μM spray, 48 hours); 0.17 (clone 17C11, MeJA 200 μM spray, 24 hours); 0.17 (clone 17C11, MeJA 200 μM spray, 48 hours); 3.00 (clone 18H16, MeJA 200 μM spray, 24 hours); 0.79 (clone 18H16, MeJA 200 μM spray, 48 hours). In addition, the “Cy5/Cy3 Ratios (Upregulation) for JAS” value runs as follows: (clone 20F18, MeJA 200 μM spray, 24 hours) 0.16; (clone 20F18, MeJA 200 μM spray, 48 hours) 0.18; (clone 20G16, MeJA 200 μM spray, 24 hours) 0.50; (clone 20G16, MeJA 200 μM spray, 48 hours) 0.49; (clone 24G4, MeJA 200 μM spray, 24 hours) 0.37; (clone 24G4, MeJA 200 μM spray, 48 hours) 0.41. For the same compound, the “Cy5/Cy3 Ratios (Upregulation) for JAS” value is, setting by setting: (clone 25K14, MeJA 200 μM spray, 24 hours) 3.07; (clone 25K14, MeJA 200 μM spray, 48 hours) 1.02.
